{"source": "patent US10688084B2", "about": "(priority 2016, dated 2020)", "key": {"Wistar rats [1]": {"system": "Wistar rats", "type": "in vivo", "experimental": "In the study of analgesic properties of the formula I compound, were taken female and male Wistar rats aged 6-7 weeks with a body mass of 180-220 g. The number of animals in each group was 10.\n[…] inflammation was modeled in rats by subplantar administration of 0.1 ml of a 1% solution of carrageenin (a sulfated polysaccharide from Irish sea moss) into the right hind paw. The substance was administered intragastrically using a gastric probe.\nInflammatory hyperalgesia (increased pain sensitivity of inflamed tissues in rats) was caused by carrageenin and was assessed by decrease of the pain sensitivity threshold—PST (by PST difference) to mechanical irritation (squeezing) of the paw tissue of the animal before the introduction of carrageenin and 3 hours after it. The measurement was performed on the inflamed paw. Used analgesimeter Ugo Basile S.R.L. (Italy) provides a gradual increased afterload on the rat's inflamed paw until a pain reaction appears (assessed by squeaking of animal or withdrawing the paw). The analyte was administered 2 h after carrageenin administration. […] An increase in the pain response threshold under the influence of the substances under study was expressed in an increase in the force of compression of the limb and characterized the intensity of the analgesic effect of the preparation. After the experiment, animals were euthanized by carbon dioxide inhalation method.\nThe introduction to rats was carried out in the amount of no more than 1 ml/100 g. The concentration of the resulting solution was 5 mg/ml.\n(§1) To prepare a dose of 20 mg/kg, 40 ml of solution with a concentration of 5 mg/ml (50 mg/kg) were taken, transferred to a 100 ml measuring flask with accuracy class A, adjusted to 100 ml with 0.5% water solution of Tween-80 and the suspension was dispersed to a homogeneous consistency using a dispersant.\nTo prepare a dose of 10 mg/kg, 20 ml of solution with a concentration of 5 mg/ml (50 mg/kg) were taken, transferred to a 100 ml measuring flask with accuracy class A, adjusted to 100 ml with 0.5% aqueous solution of Tween-80 and the suspension was stirred to a homogeneous consistency with a magnetic stirrer MR Hei-Standard (Heidolph, Germany).\nas §1, with “5” for “20”, “[…]” for “40”, “stirred” for “dispersed”, “with” for “using”, “magnetic stirrer.” for “dispersant.”"}, "Wistar rats [2]": {"system": "Wistar rats", "conditions": "for Number of animals in the group/number of dead animals / LD10 / LD16 / LD84: rat; for Number of animals in the group/number of dead animals: 14 days; for LD10 / LD16 / LD84: intragastric", "experimental": "The experiment was performed according to the fixed dose method in Wistar rats of both sexes, 6 animals per group. […] The solvent used was a 0.5% Tween-80 solution (Tween 80—polyoxyethylene, a derivative of sorbitan and oleic acid, a commercially available polymer), which was prepared by dissolving 0.5 g of Tween-80 in 100 ml of distilled water.\nThe introduction was carried out to animals deprived of food (for a period of not less than 8 hours) with free access to water. The volume of administration was calculated individually for each animal, based on the body mass recorded immediately before the introduction of the substance. Access to the feed was renewed an hour after the introduction. Animals were observed individually after administration for 30 minutes, then at least once per hour for 4 hours, then daily once a day for 14 days. Body mass was recorded immediately before the administration of the preparation to calculate the volume of administration, then once every two days. If the animal died during the study, the time of death was determined and documented as accurately as possible. The animal was weighed and dissected as soon as possible. Dying animals were weighed, euthanized and dissected. Animals were euthanized by inhalation of carbon dioxide. Toxic doses LD10, LD16, LD50 and LD84 were calculated using probit analysis with IBM SPSS Statistics software.\nAt the end of the experiment, euthanasia and pathomorphological dissection of control and experimental animals were performed."}}, "note": "Read-outs that look alike come from different tables or passages of the source.", "data": [{"smiles": "COc1ccc2cc([C@H](C)C(=O)OCc3cnc(C)c(OC(=O)[C@@H](C)c4ccc5cc(OC)ccc5c4)c3COC(=O)[C@@H](C)c3ccc4cc(OC)ccc4c3)ccc2c1", "note": "[Compound of formula I, 3-((S)-2-(6-methoxynaphth-2-yl)propanoiloxy)-4,5-bis (((S)-2-(6-methoxinaphtht-2-yl)propanoiloxy)methyl)-2-methylpyridinium (S)-2-(6-methoxynaphth-2-yl) propanoate]", "values": [{"measurement": "Analgesic effect, total/analgesic effect", "setting": "Wistar rats [1]; females, 5 mg/kg", "value": "10/9"}, {"measurement": "Paw volume 0 hours", "setting": "Wistar rats [1]; females, 5 mg/kg", "value": "3.9 ± 1.4"}, {"measurement": "Paw volume 3 hours", "setting": "Wistar rats [1]; females, 5 mg/kg", "value": "7.2 ± 3.2"}, {"measurement": "Analgesic effect, %", "setting": "Wistar rats [1]; females, 5 mg/kg, control = 100.0", "value": "282.0 ± 125.9", "unit": "%"}, {"measurement": "Analgesic effect, total/analgesic effect", "setting": "Wistar rats [1]; females, 10 mg/kg", "value": "10/8"}, {"measurement": "Paw volume 0 hours", "setting": "Wistar rats [1]; females, 10 mg/kg", "value": "4.3 ± 2.2"}, {"measurement": "Paw volume 3 hours", "setting": "Wistar rats [1]; females, 10 mg/kg", "value": "10.5 ± 7.2"}, {"measurement": "Analgesic effect, %", "setting": "Wistar rats [1]; females, 10 mg/kg, control = 100.0", "value": "408.2 ± 279.3", "unit": "%"}, {"measurement": "Analgesic effect, total/analgesic effect", "setting": "Wistar rats [1]; females, 20 mg/kg", "value": "10/9"}, {"measurement": "Paw volume 0 hours", "setting": "Wistar rats [1]; females, 20 mg/kg", "value": "4.6 ± 3.3"}, {"measurement": "Paw volume 3 hours", "setting": "Wistar rats [1]; females, 20 mg/kg", "value": "9.1 ± 7.4"}, {"measurement": "Analgesic effect, %", "setting": "Wistar rats [1]; females, 20 mg/kg, control = 100.0", "value": "353.5 ± 289.7", "unit": "%"}, {"measurement": "Analgesic effect, total/analgesic effect", "setting": "Wistar rats [1]; females, 50 mg/kg", "value": "10/7"}, {"measurement": "Paw volume 0 hours", "setting": "Wistar rats [1]; females, 50 mg/kg", "value": "8.9 ± 5.7"}, {"measurement": "Paw volume 3 hours", "setting": "Wistar rats [1]; females, 50 mg/kg", "value": "12.4 ± 6.5"}, {"measurement": "Analgesic effect, %", "setting": "Wistar rats [1]; females, 50 mg/kg, control = 100.0", "value": "484.4 ± 251.8", "unit": "%"}, {"measurement": "Dose at which a pronounced anesthetic effect is exhibited", "setting": "Wistar rats [1]; intragastric", "value": 5, "unit": "mg/kg"}, {"measurement": "Analgesic effect, total/analgesic effect", "setting": "Wistar rats [1]; males, 5 mg/kg", "value": "10/7"}, {"measurement": "Analgesic effect, total/analgesic effect", "setting": "Wistar rats [1]; males, 10 mg/kg", "value": "10/10"}, {"measurement": "Analgesic effect, total/analgesic effect", "setting": "Wistar rats [1]; males, 20 mg/kg", "value": "10/9"}, {"measurement": "Analgesic effect, total/analgesic effect", "setting": "Wistar rats [1]; males, 50 mg/kg", "value": "10/8"}, {"measurement": "Analgesic effect, %", "setting": "Wistar rats [1]; rat, in vivo, 5 mg/kg", "value": "259.9 ± 229.7", "unit": "%"}, {"measurement": "Paw volume 0 hours", "setting": "Wistar rats [1]; rat, in vivo, 5 mg/kg", "value": "4.4 ± 2.7"}, {"measurement": "Paw volume 3 hours", "setting": "Wistar rats [1]; rat, in vivo, 5 mg/kg", "value": "5.5 ± 2.5"}, {"measurement": "Analgesic effect, %", "setting": "Wistar rats [1]; rat, in vivo, 10 mg/kg", "value": "453.7 ± 159.9", "unit": "%"}, {"measurement": "Paw volume 0 hours", "setting": "Wistar rats [1]; rat, in vivo, 10 mg/kg", "value": "4.2 ± 2.4"}, {"measurement": "Paw volume 3 hours", "setting": "Wistar rats [1]; rat, in vivo, 10 mg/kg", "value": "12.0 ± 4.6"}, {"measurement": "Analgesic effect, %", "setting": "Wistar rats [1]; rat, in vivo, 20 mg/kg", "value": "418.1 ± 215.7", "unit": "%"}, {"measurement": "Paw volume 0 hours", "setting": "Wistar rats [1]; rat, in vivo, 20 mg/kg", "value": "6.4 ± 5.7"}, {"measurement": "Paw volume 3 hours", "setting": "Wistar rats [1]; rat, in vivo, 20 mg/kg", "value": "12.0 ± 6.2"}, {"measurement": "Analgesic effect, %", "setting": "Wistar rats [1]; rat, in vivo, 50 mg/kg", "value": "367.9 ± 220.1", "unit": "%"}, {"measurement": "Paw volume 0 hours", "setting": "Wistar rats [1]; rat, in vivo, 50 mg/kg", "value": "3.4 ± 2.3"}, {"measurement": "Paw volume 3 hours", "setting": "Wistar rats [1]; rat, in vivo, 50 mg/kg", "value": "10.6 ± 6.3"}, {"measurement": "Dead animals", "setting": "Wistar rats [2]; 5000 mg/kg intragastric, female, three days later", "value": 1, "unit": "rat"}, {"measurement": "Clinical observation after administration", "setting": "Wistar rats [2]; 5000 mg/kg intragastric, symptom disappeared in 20-30 minutes", "value": "slight inhibition of the activity of the animal"}, {"measurement": "Body mass increase", "setting": "Wistar rats [2]; 5000 mg/kg, 2 days after start", "value": "1-4%"}, {"measurement": "Body mass increase", "setting": "Wistar rats [2]; 5000 mg/kg, 4 days after start", "value": "2-6%"}, {"measurement": "Body mass increase", "setting": "Wistar rats [2]; 5000 mg/kg, eighth day", "value": "2-8%"}, {"measurement": "Autopsy findings", "setting": "Wistar rats [2]; 5000 mg/kg, end of experiment", "value": "No changes were observed"}, {"measurement": "Body mass increase", "setting": "Wistar rats [2]; 5000 mg/kg, end of the experiment", "value": "5-13%"}, {"measurement": "Hazard class (GOST 12.1.007-76)", "setting": "Wistar rats [2]; intragastric administration", "value": 4, "unit": "th hazard class"}, {"measurement": "Number of animals in the group/number of dead animals", "setting": "Wistar rats [2]; females, 5000 mg/kg intragastric", "value": "6/1"}, {"measurement": "LD10", "setting": "Wistar rats [2]; females", "value": ">5000"}, {"measurement": "LD16", "setting": "Wistar rats [2]; females", "value": ">5000"}, {"measurement": "LD84", "setting": "Wistar rats [2]; females", "value": ">5000"}, {"measurement": "Number of animals in the group/number of dead animals", "setting": "Wistar rats [2]; males, 5000 mg/kg intragastric", "value": "6/0"}, {"measurement": "LD10", "setting": "Wistar rats [2]; males", "value": ">5000"}, {"measurement": "LD16", "setting": "Wistar rats [2]; males", "value": ">5000"}, {"measurement": "LD84", "setting": "Wistar rats [2]; males", "value": ">5000"}]}]}
